Like-named read-outs stand apart in the source and are kept apart here.
Key:
PC3 = experiment: Cell proliferation and viability, methylene-blue staining; assay type: cell-based; conditions: Homo sapiens, PC-3, 72 h; PC3, prostate cancer; 3 days exposure
Procedure: (§1) Cells were grown in complete medium and treated with inhibitors one day following seeding. 72 hours later, the surviving cells were quantified by methylene blue staining or by WST-1 staining for nonadherent cells (Roche).
(§2) Cells were plated in 96-well plates in 5-10% FCS in medium; a day later exposed to various concentrations of compound A, compound D or OSI-906 and 3 days later stained with methylene-blue and the relative cell number was quantified.

HepG2 = experiment: as above; assay type: cell-based; conditions: Homo sapiens, 72 h; HepG2, hepatocarcinoma; 3 days exposure
Procedure: as §1, §2

[1] = test system: Squamous Cell carcinoma of Head&Neck (SCCHN) tumor biopsy; experiment: PDX efficacy study, acquired resistance to Erlotinib (Example 1); conditions: start ~80 mm^3; Erlotinib 100 mg/kg PO, Compound D 70 mg/kg IV; two weeks
[2] = test system: Uteral AdenoSarcoma biopsy; experiment: PDX efficacy study with Afinitor, repeat (Example 5A); assay type: in vivo, NodScid mice; conditions: Afinitor 5 mg/kg PO, Compound D 70 mg/kg IV
Procedure: The experiment described in Example 4 was repeated in purchased mice from Harlan.
• 1. […] Afinitor 5 mg/kg PO, 4 times a week (17 mice). • 4.

HNSCC tumor biopsy = experiment: PDX efficacy study, tumor recurrence after Cetuximab±Afatinib (Example 7); assay type: in vivo, NodScid mice; conditions: 9 days of treatment; start ~113 mm^3
Procedure: Experimental system: Patient-derived xenograft (PDX) of HNSCC tumor biopsy subcutaneous implanted into NodScid mice.
• Implantation of HNSCC tumor biopsy graft (P6) into NodScid mice for efficacy study: Few months following implantation of frozen HNSCC tumor biopsy graft (P1) in mice, tumor cells (P6) were injected into NodScid mice (generated by in-house breeding), using the same procedure described for implantation of P1. The original biopsy is the same as described above and the P indicates passages (implantation number in mice). • Onset of tumor growth (palpable tumor mass) was detected four days following cell injection. Five days later, treatments initiated in mice which developed tumors sized around 113 mm^3. […] Treatments and Procedures
Treatment groups included: • 1. Vehicle-control: Vehicle (0.5% Hydroxymethyl-cellulose, 0.4% Tween-80) 200 μl PO (5 times/week, qd). • 2. Compound D 70 mg/kg in HPbCD, IV (3 times/week, qod). • 3.
(§6) The length (l) and the width (w) of the tumors were measured 2-4 times a week and the volumes of the tumors were calculated as follows: v=lw^2/2.

[3] = test system: Uteral AdenoSarcoma biopsy; experiment: PDX efficacy study with Afinitor (Examples 4 and 5); conditions: phase I
Procedure: Treatments and Procedures
Treatment groups included: • 1. Control: 20% HPbCD 50 ul IP, qod (6 mice). • 2. […] Afinitor 5 mg/kg PO, qod (15 mice). • 4. Afinitor 5 mg/kg PO (qod)+Compound D 70 mg/kg IV (qod), 6 mice. Afinitor was administered ˜4 hr following Compound D.
All treatments were initiated simultaneously on day0.
The length (l) and the width (w) of the tumors were measured every other day and the volumes of the tumors were calculated as follows: v=lw^2/2.
Following treatments described in phase I (example 4), the mice whose tumors reached the end point were sacrificed, and the following treatments were continued.
• 1. The Afinitor-responder group (group A, open squares) was administered with Afinitor 5 mg/kg PO, qd (8 mice). • 2. The combined treatment group (open circles) continued to get the Afinitor 5 mg/kg PO (qod)+Compound D 70 mg/kg IV (qod) treatment (6 mice). Afinitor was administered ˜4 hr following Compound D. Phase III:
The group was divided to two groups of 4 mice each which received the following treatments on day6 onwards: • The first continued to get Afinitor 5 mg/kg PO, qd (4 mice) • and the second got Afinitor 5 mg/kg PO (qod)+Compound D 70 mg/kg IV (qod) combined treatment (4 mice). Afinitor was administered ˜4 hr following Compound D.

[4] = test system: Adenoid Cyctic Carcinoma tumor biopsy; experiment: PDX efficacy study with Trametinib (Example 9); assay type: in vivo, NodScid mice; conditions: day0-day13; start ~65 mm^3; Trametinib 1 mg/kg PO, Compound D 70 mg/kg IV
Description: Experimental system: Patient-derived xenograft (PDX) of Adenoid Cyctic Carcinoma tumor biopsy subcutaneous implanted into NodScid mice.
• Biopsy: Fresh human primary Adenoid Cyctic Carcinoma tumor biopsy. […] The mice were randomly divided into treatment groups including 5 animals/group. The vehicle-treated group included 4 mice. II. Treatments and Procedures
Treatment groups included: • 1. Vehicle-control: vehicle of Trametinib (5% Propylene Glycol, 0.5% Tween-80, 30% PEG 400 in Sterile DDW) 200 μl PO (5 times/week, qd). • 2. […] Trametinib 1 mg/kg PO (5 times/week, qd). • 4.
as §6

Mel1617-BR = experiment: Cell proliferation and viability, methylene-blue staining; assay type: cell-based; conditions: Homo sapiens, 72 h, melanoma, 3 days exposure
Procedure: (§3) All melanoma cells used and discussed in FIGS. 6-9 and table 1 are from human origin and bearing the mutated BRAF^600K/E.
as §1, §2

Mel1617-Pa = experiment: as above; assay type: cell-based; conditions: Homo sapiens, 72 h, melanoma, 3 days exposure
Procedure: as §3, §1, §2

[5] = test system: colon metastatic carcinoma biopsy; experiment: PDX efficacy study with Cetuximab and FOLFIRI (Example 12); assay type: in vivo, NodScid mice; conditions: start ~110 mm^3; 14 days
Procedure: Experimental system: Patient-derived xenograft (PDX) of human primary colon metastatic carcinoma biopsy subcutaneous implanted into NodScid mice.
The length (l) and the width (w) of the tumors were measured 4 times a week and the volume of the tumors were calculated as follows: v=lw^2/2.

451Lu-BR = experiment: Cell proliferation and viability, methylene-blue staining; assay type: cell-based; conditions: Homo sapiens, 72 h, melanoma, 3 days exposure
Procedure: (§4) All cell lines were obtained from the American Type Culture Collection. YUMAC, YURIF, YUSIK (all human melanoma, kindly provided by Prof. Ruth Halaban, Yale University, New Haven, Conn.) were cultured in OptiMEM containing 5% FCS. M571, M2068, M560n (all human melanoma, kindly provided by Dr. Michal Lotem, Hadassah Hospital, Jerusalem, Israel) were maintained in RPMI, DMEM and F12 (1:3:1) containing 10% FCS. 451-Lu (human melanoma) and 451-Lu-BR (PLX4032-resistant melanoma; ref. 32) were maintained in RPMI containing 5% FCS (media for resistant lines contained […] PLX4032). All media were supplemented with 100 U/mL penicillin and […] and all cells were grown at 37° C./5% CO2.
as §3, §1, §2

451Lu-Pa = experiment: as above; assay type: cell-based; conditions: Homo sapiens, 72 h, melanoma, 3 days exposure
Procedure: as §4, §3, §1, §2

[6] = test system: phospho-Y705 Stat3 (pSTAT3) in melanoma A375 cells; experiment: Immunoblot of Stat3 Y705-phosphorylation in intact cells; assay type: cell-based, human; conditions: Homo sapiens, A-375
Procedure: FIGS. 6A-6E. […] A. Human melanoma A375 cells were treated with the indicated concentrations of compounds A or D for 1.3 and 4.5 hr. Cells were lysed and immunoblotted with antibodies against phospho-Y705 Stat3 (pSTAT3) and Stat3. […] B. Cells were treated with 2 μM Compound A and lysed following the indicated times. C. A375 cells were treated with compound D for 4 hr, then washed with medium several times and lysed after 4, 24 and 48 hr of incubation without inhibitors.
(§5) • Cells were treated as indicated in FIGS. 6-9 and the corresponding figure legends, following overnight serum-starvation (unless indicated differently). When cells were treated with both PLX4032 and compounds A or D, PLX4032 was added 3-4 hr following the compounds. • Cells were lysed with boiling sample buffer (10% glycerol, 50 mmol/L Tris-HCl, pH 6.8, 3% SDS, and 5% 2-mercaptoethanol). Western blot analysis was conducted in 8% SDS-PAGE, using antibodies described below. • Aliquots of cell extracts containing equal amounts of protein were resolved by 8% SDS/PAGE and electroblotted onto nitrocellulose filters. The membranes were blocked with low-fat milk diluted 1:20 in TBST (NaCl/Tris containing 0.2% Tween-20) for 0.5 hr, incubated with Rabbit anti-phosphoY705-Stat3 antibody (Cell signaling cat #9131), Mouse anti-ERK-diphosphorylated-YT (Sigma Aldrich cat #M8159) or anti-PARP antibodies overnight at 4 C in 5% BSA in TBST containing 0.05% azid, washed extensively with TBST and then incubated with horseradish peroxidase-conjugated secondary antibodies for 45 min at room temperature in 5% BSA in TB ST. • Immunoreactive bands were visualized using enhanced chemiluminescence. Membranes were re-blotted with Mouse anti-Stat3 antibody (Transduction labs cat #21320) or with Rabbit anti AKT1/2 (Santa cruz cat #sc-8312) or Anti-Actin as described above. IV. Chemotaxis of Peripheral Blood Mononuclear Cells (PBMCs)

A375 melanoma cells = experiment: Apoptosis after short exposure and wash-out; assay type: cell-based, human; conditions: 4 hr exposure, washed; 24 and 48 hr later (FIG. 6C)
Procedure: as §5, with “Chemotaxis of Peripheral Blood Mononuclear Cells (PBMCs)” left out

MM1S = experiment: Cell proliferation and viability; assay type: cell-based; conditions: Homo sapiens, MM1.S, 72 h, multiple myeloma, 3 days exposure
Procedure: as §1, §2

[7] = test system: pStat3 in 451-LU-BR, Mel1617-BR and patient cells M2068, M571; experiment: Immunoblot of pStat3 in BRAFi-resistant melanoma cells; assay type: cell-based, human
Procedure: FIGS. 8A-8D. […] FIG. 8C. […] FIG. 8D. Cells of various cancer types were treated with compound D for 4 hr in serum-free medium, and 20 hr in medium with or without 10% serum. Asterisks indicate 10 μM concentration for RPMI8226 and HepG2 cells.
as §5

HCT15 = experiment: Cell proliferation and viability, methylene-blue staining; assay type: cell-based; conditions: Homo sapiens, HCT-15, 72 h; HCT15, colon cancer; 3 days exposure
Procedure: as §2, with “Cells were grown in complete medium and treated with inhibitors one day following seeding. 72 hours later, the surviving cells were quantified by methylene blue staining or by WST-1 staining for nonadherent cells (Roche). Cells” for “Cells”

[8] = test system: pStat3 in A375, 451-Lu, Mel1617 cells; experiment: Immunoblot of basal and PLX4032-induced pStat3 in PLX4032-sensitive melanoma cells; assay type: cell-based, human; conditions: PLX4032 1 μM added 3-4 hr after the compounds (FIG. 7C-E, 8A)
Procedure: FIGS. 7A-7E. […] FIG. 7A. […] FIG. 7B. […] Cells from patients were grown in complete medium and immunoblotted as described above. […] Compounds A/D block the basal and the PLX4032-induced pStat3. Treatment of PLX4032-sensitive human melanoma A375 (C), 451-Lu (D) or Mel1617 (E) cells with 1 μM PLX4032 for 18-24 hr induces a dramatic increase in pStat3. Compounds A (FIG. 7C, D) or D (FIG. 7E) block both the basal and the PLX4032-induced pStat3. OSI-906, an ATP-competitive inhibitor of IGF1R, has no effect on pStat3.
as §5

[9] = test system: tumor pieces of pancreatic cancer liver metastasis PDX; experiment: Culture of tumor pieces excised at the end of the experiment (Example 10); assay type: cell-based; conditions: three tumors per group; fixed and stained nine days later
Procedure: At the end of the experiment, tumor pieces, similar in size, from three tumors per group were cultured in separate plates to test their viability and proliferative activity.

[10] = test system: pancreatic cancer metastasis from the liver; experiment: PDX efficacy study with Gemcitabine (Example 10); assay type: in vivo, NodScid mice
Procedure: Experimental system: Patient-derived xenograft (PDX) of a biopsy of pancreatic cancer metastasis from the liver, subcutaneous implanted into NodScid mice.
• Implantation of pancreatic cancer metastasis from the liver RA_160 tumor biopsy graft (P5) into NodScid mice for efficacy study: Several weeks following implantation of pancreatic cancer liver metastasis biopsy graft in mice, tumor cells (P5) were injected into NodScid mice (generated by in-house breeding), using the same procedure described above. • Onset of tumor growth (palpable tumor mass) was detected ten days following cell injection. A week later (on da0), 19 mice with average tumor size of 90 mm^3 initiated treatments with Gemcitabine 25 mg/kg IP twice a week for 35 days. […] On day21 the average tumor size in Gemcitabine-treated group was ˜5 mm^3 as compared to 1400 mm^3 in the control group. • 42 days following initiation of treatment with Gemcitabine resistance developed and regressed tumors progressed. Four days later 16 mice of the Gemcitabine-treated group with average tumor volume of ˜110 mm^3 were divided to two groups as follows. II. Treatments
Treatment groups, following resistance to Gemcitabine has been acquired, included: • 1. Gemcitabine 25 mg/kg IP twice a week • 2. Gemcitabine 25 mg/kg IP+Compound D 70 mg/kg IV, twice a week.

## Oc1cc(CNC(=S)/C=C/c2ccc(O)c(O)c2Br)cc(O)c1O [Compound D]
PC3
  IC50: 500 nM
HepG2
  IC50: 700 nM
[1]
  tumor response (tumor volume): has not responded
[2]
  effect on tumor growth: no effect on tumor growth
HNSCC tumor biopsy
  tumor response while on treatment: aggressively progressed
[3]
  responder mice: none of the mice responded
[3]; four days, Afinitor 5 mg/kg PO, Compound D 70 mg/kg IV
  effect on tumor growth: no significant effect on tumor growth
[4]
  tumor response, first phase: moderate tumor growth inhibition
Mel1617-BR
  IC50: 300 nM
Mel1617-Pa
  IC50: 200 nM
[5]
  effect on tumor growth: No effect on tumor growth
451Lu-BR
  IC50: 600 nM
451Lu-Pa
  IC50: 300 nM
[6]; A375 cells, 1.3 hr post-treatment (FIG. 6A), read-out: IC50 of inhibition of Stat3 phosphorylation (pStat3)
  IC50: ~2000 nM
[6]; A375 cells, 3 hr later (4.5 hr treatment, FIG. 6A), read-out: IC50 of inhibition of Stat3 phosphorylation (pStat3)
  IC50: < 1000 nM
[6]; FIG. 6D, read-out: IC50 of dose-dependent inhibition of pStat3
  IC50: < 1000 nM
A375 melanoma cells
  cell apoptosis after short exposure: sufficient to induce cell apoptosis 24 and 48 hr later
MM1S
  IC50: 200 nM
[7]; 451-LU-BR, Mel1617-BR, patient cells M2068 and M571 (FIG. 8A-C)
  effect on Stat3 phosphorylation in PLX4032-resistant melanoma cells: block Stat3 phosphorylation completely
[7]; FIG. 8C
  relative activity on pStat3 in melanoma cells from patients who acquired resistance to PLX4032: better activity of compound D compared with compound A
HCT15
  IC50: 800 nM
[8]
  effect on basal and PLX4032-induced pStat3 levels: block both the basal and the PLX4032-induced levels of pStat3

## Nc1ccn([C@@H]2O[C@H](CO)[C@@H](O)C2(F)F)c(=O)n1 [Gemcitabine]
[9]
  proliferative activity of cultured tumor pieces: massive proliferation
[10]; Gemcitabine 25 mg/kg IP twice a week, control 1400 mm^3
  average tumor size on day21: ~5 mm^3
[10]; Gemcitabine 25 mg/kg IP twice a week, start 90 mm^3
  tumor response on day11: all tumors in Gemcitabine-treated mice regressed
[10]; start ~110 mm^3, after resistance was acquired
  response of Gemcitabine-resistant tumors: all tumors treated with Gemcitabine progressed
[10]; treated for 35 days
  time from initiation of treatment until resistance developed: 42 days

— patent publication US12201592B2, “Combinations of IRS/STAT3 dual modulators and anti-cancer agents for treating cancer” (TYRNOVO LTD., priority 2015, dated 2025)
